# In ChEMBL document CHEMBL1201862, “PubChem BioAssay data set” (2004):
#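 Grown in 96-well plates, cells were treated for 48 hours with each compound at five concentrations. Insufficient inhibition: endpoint recorded as highest concentration tested. Abbreviation: GI50, concentration required for 50% inhibition of growth.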 Calls of active or inactive are those of the source. Cut-off read from the data, not from the text of the source: active = GI50 up to about 1.1 µM and inactive = higher. Where a SMILES comes first, the peptide text is derived from it. The star is where a group is joined. Cbz = O=C(OCc1ccccc1)*; Bn = c1ccc(C*)cc1
# What was measured:
# Test in all cases: NCI anticancer screen, dose series, 48 h
# T47D = test system: T47D
# Hs-578T = test system: Hs-578T
# MDA-N = test system: MDA-N
# BT-549 = test system: BT-549
# M19-MEL = test system: M19-MEL
# DMS-273 = test system: DMS-273
# SNB-78 = test system: SNB-78
# KM-20L2 = test system: KM-20L2
# RXF 631 = test system: RXF 631
Compound,GI50 (T47D),GI50 (Hs-578T),GI50 (MDA-N),GI50 (BT-549),GI50 (M19-MEL),GI50 (DMS-273),GI50 (SNB-78),GI50 (KM-20L2),GI50 (RXF 631)
COc1cc(C2c3cc(OC)c(OC)c(O)c3C(=O)C3CCC(=O)N32)cc(OC)c1OC (stereo unspecified),> 100 µM (inactive),56.4 µM (inactive),18.2 µM (inactive),25.2 µM (inactive),–,–,–,–,–
CCOC(=O)C1(Cc2ccc3ccccc3c2)CCCCC(=O)N1 (stereo unspecified),–,–,–,–,48.6 µM (inactive),13.5 µM (inactive),52.7 µM (inactive),30.5 µM (inactive),–
C=CCCCCn1c2ccccc2c2c(C)c3cnccc3c(C)c21,–,–,–,–,–,5.14 µM (inactive),12.1 µM (inactive),6.38 µM (inactive),–
O=CC1C(Cl)=Nc2nc3ccccc3n2C1c1ccc([N+](=O)[O-])cc1 (stereo unspecified),1.57 µM (inactive),57.7 µM (inactive),–,< 0.01 µM (active),–,–,–,–,–
CC(=O)N1OC(C)CC1Nc1ccc(Br)cc1 (stereo unspecified),1.34 µM (inactive),> 100 µM (inactive),0.252 µM (active),65.3 µM (inactive),–,–,–,–,–
COc1ccc2c(c1)CCC(CN1CCN(CCOC(c3ccccc3)c3ccccc3)CC1)C2O (stereo unspecified),16.1 µM (inactive),19.3 µM (inactive),14.3 µM (inactive),14 µM (inactive),–,–,–,–,–
C1CCC(OCc2nnn3c2CCC3)OC1 (stereo unspecified),–,–,–,–,> 100 µM (inactive),–,> 100 µM (inactive),> 100 µM (inactive),–
C=CCOCC1C2CCC3(OCCO3)C21 (stereo unspecified),–,–,> 100 µM (inactive),> 100 µM (inactive),–,–,–,–,–
Nc1c(/N=N/c2ccc(-c3ccc(/N=N/c4c(O)ccc5cc(S(=O)(=O)O)cc(S(=O)(=O)O)c45)cc3)cc2)c(S(=O)(=O)O)cc2cc(S(=O)(=O)O)c(/N=N/c3ccccc3)c(O)c12,–,–,–,–,> 100 µM (inactive),> 86.9 µM (inactive),> 84.3 µM (inactive),–,–
N/C(S)=N/N=C/c1ccc(O)cn1,4.72 µM (inactive),316 µM (inactive),8.45 µM (inactive),44.5 µM (inactive),11.1 µM (inactive),3.75 µM (inactive),–,–,31.2 µM (inactive)
CC1=C(C(=O)Nc2cccc(Cl)c2)C(c2ccc([N+](=O)[O-])cc2)C(C(=O)Nc2cccc(Cl)c2)=C(C)N1,–,–,–,–,–,–,36.1 µM (inactive),20.2 µM (inactive),19.8 µM (inactive)
Cn1cc(C(=O)c2ccccc2)ccc1=O,–,–,–,–,> 100 µM (inactive),> 100 µM (inactive),> 100 µM (inactive),> 100 µM (inactive),–
CCOC(=O)/C(=N/Nc1ccccc1)N1C(=S)N(C)N=C(C)C=C1S,44.2 µM (inactive),70 µM (inactive),–,76.9 µM (inactive),–,–,–,–,–
COc1cccc(C2SC(=N)Nc3c2c(C)nn3C(=O)Cc2ccccc2)c1 (stereo unspecified),> 100 µM (inactive),> 100 µM (inactive),> 100 µM (inactive),> 100 µM (inactive),–,–,–,–,–
C/C=C/c1cc2c(c(=O)o1)C(=O)[C@@H](O)[C@H](C)O2,–,–,–,–,13.4 µM (inactive),16 µM (inactive),18.8 µM (inactive),16.1 µM (inactive),–
O=Cc1cccc2ccc3ccccc3c12,15 µM (inactive),13.5 µM (inactive),21.6 µM (inactive),30.5 µM (inactive),–,–,–,–,–
OC1CSCCSCCCSCCSC1,> 100 µM (inactive),> 100 µM (inactive),> 100 µM (inactive),> 100 µM (inactive),–,–,–,–,–
COCCOc1nc(-c2ccccc2)nc2ccccc12,27.7 µM (inactive),28.8 µM (inactive),32.5 µM (inactive),35.9 µM (inactive),–,–,–,–,–
COC(=O)C(Cc1ccc(O)cc1)NC(=O)C(COCc1ccccc1)NC(=O)OCc1ccccc1 (stereo unspecified) (Cbz-Ser(Bn)-Tyr-OMe; configuration not given here),17.7 µM (inactive),24.6 µM (inactive),17.6 µM (inactive),72.3 µM (inactive),–,–,–,–,–
